This is an account of results in PubChem BioAssay (NCI).

Test systems include HCT-15 colon; HL-60(TB) leukemia; M14 melanoma; OVCAR-5 ovarian; OVCAR-4 ovarian; CCRF-CEM leukemia; SW-620 colon; SK-MEL-5 melanoma; SK-MEL-2 melanoma; UACC-257 melanoma.
Holding throughout (experiment): inhibition of tumour cell growth, NCI panel, 48 h

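How tested: cells in 96-well plates exposed to compound for 48 hours at five concentrations. GI50 marks 50% less growth. TGI: total growth inhibition.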

In the case of `C[C@]12CCC3c4ccc(OC(=O)c5ccccc5)cc4CC[C@H]3C1CC[C@@H]2OC(=O)C12OC1CCC2=O` (stereo not given in full), the TGI was found to be 31.3 µM in the assay on HCT-15 colon; 4.56 µM with HL-60(TB) leukemia; 12 µM in the assay with M14 melanoma; 21.4 µM in the assay on OVCAR-5 ovarian; 10.6 µM with OVCAR-4 ovarian; 5.39 µM in the assay with CCRF-CEM leukemia. Moreover, the TGI in the assay with SW-620 colon came to 4.86 µM; in the assay on SK-MEL-5 melanoma, 9.49 µM; with SK-MEL-2 melanoma it was 16 µM; in the assay with UACC-257 melanoma it was 14.8 µM.

Consider `CCCCCCCC1c2cc3[nH]c(cc4nc(cc5[nH]c(cc(n2)[C@@]1(C)CC(=O)N(C)C)c(C)c5CCC(=O)O)C(CCC(=O)O)=C4C)cc3C` (stereo not given in full), for which the TGI in the assay on HCT-15 colon was 39.5 µM; with HL-60(TB) leukemia, 45.8 µM; in the assay on M14 melanoma, 29.8 µM; in the assay with OVCAR-5 ovarian, 55.5 µM; with OVCAR-4 ovarian, > 100 µM; in the assay with CCRF-CEM leukemia, 42.6 µM. Also, the TGI is > 100 µM in the assay with SW-620 colon, 51 µM with SK-MEL-5 melanoma, 34 µM in the assay with SK-MEL-2 melanoma and 35.2 µM with UACC-257 melanoma.

As to `C[C@H](c1ccc(Cl)cc1N)N1C(=O)c2cc(I)ccc2N(CCCN2CCN(C)CC2)C(=O)[C@@H]1c1ccc(Cl)cc1`, the GI50 in the assay on HCT-15 colon is 1.68 µM; in the assay with HL-60(TB) leukemia, 1.89 µM; in the assay with M14 melanoma, 1.96 µM; in the assay with OVCAR-5 ovarian it was 1.77 µM; in the assay with OVCAR-4 ovarian it was 1.74 µM; in the assay with CCRF-CEM leukemia it was 1.63 µM. Further, the GI50 was 1.72 µM with SW-620 colon, 1.57 µM in the assay with SK-MEL-5 melanoma, 1.81 µM in the assay on SK-MEL-2 melanoma and 1.24 µM in the assay with UACC-257 melanoma. Moreover, the TGI came to 3.2 µM with HCT-15 colon; 3.69 µM in the assay on HL-60(TB) leukemia; 3.65 µM with M14 melanoma; 3.44 µM in the assay with OVCAR-5 ovarian; 3.43 µM in the assay with OVCAR-4 ovarian; 3.47 µM in the assay with CCRF-CEM leukemia. Further, the TGI with SW-620 colon amounted to 3.14 µM; with SK-MEL-5 melanoma, 2.92 µM; with SK-MEL-2 melanoma, 3.37 µM; in the assay with UACC-257 melanoma it was 2.69 µM.

Turning to `Cc1cc(Cl)ccc1Nc1sc(C(=O)c2cc3cc(Cl)ccc3o2)c(N)c1C#N`, the TGI in the assay on HCT-15 colon was > 100 µM; in the assay on HL-60(TB) leukemia, > 100 µM; in the assay on M14 melanoma, > 100 µM; in the assay on OVCAR-5 ovarian it was > 100 µM; with OVCAR-4 ovarian it was 25.1 µM; with CCRF-CEM leukemia it was > 52.8 µM. Also, the TGI with SW-620 colon was > 69.9 µM; in the assay on SK-MEL-5 melanoma, > 100 µM; with SK-MEL-2 melanoma, > 100 µM; in the assay with UACC-257 melanoma, > 100 µM.

With `Cc1cc(NC(=O)c2ccc(NS(=O)(=O)CCO)cc2N2CCC3(CC2)CC3)nc(N2CCC(F)(F)CC2)n1`, the GI50 in the assay on HCT-15 colon is 4.71 µM; with HL-60(TB) leukemia, 19.4 µM; in the assay on M14 melanoma, 14.3 µM; in the assay on OVCAR-5 ovarian, 11.4 µM; in the assay on OVCAR-4 ovarian, 14.2 µM; in the assay with CCRF-CEM leukemia, 10 µM. The GI50 is 13.1 µM in the assay with SW-620 colon, 2.7 µM in the assay on SK-MEL-5 melanoma, 15.8 µM in the assay with SK-MEL-2 melanoma and 16.8 µM in the assay with UACC-257 melanoma. The TGI is 20.5 µM in the assay with HCT-15 colon; > 57.1 µM in the assay on HL-60(TB) leukemia; 28.9 µM with M14 melanoma; 23.6 µM in the assay on OVCAR-5 ovarian; 27.7 µM in the assay with OVCAR-4 ovarian; > 66 µM in the assay with CCRF-CEM leukemia. Further, the TGI came to 27.1 µM in the assay on SW-620 colon, 19.7 µM in the assay with SK-MEL-5 melanoma, 31.1 µM in the assay with SK-MEL-2 melanoma and 32 µM with UACC-257 melanoma.

Turning to `Nc1ncc(-c2cnn(C3CCNCC3)c2)cc1-c1nc2ccccc2o1`, the GI50 with HCT-15 colon was 0.508 µM; in the assay on HL-60(TB) leukemia, 0.472 µM; in the assay with M14 melanoma, 1.21 µM; with OVCAR-5 ovarian, 3.28 µM; with OVCAR-4 ovarian, 1.3 µM; in the assay on CCRF-CEM leukemia, 0.235 µM. The GI50 is 1.09 µM with SW-620 colon, 2.03 µM in the assay on SK-MEL-5 melanoma, 1.1 µM in the assay on SK-MEL-2 melanoma and 2.04 µM in the assay with UACC-257 melanoma. Further, the TGI in the assay with HCT-15 colon was determined as 2.5 µM; in the assay on HL-60(TB) leukemia, 1.66 µM; in the assay on M14 melanoma, 2.54 µM; in the assay on OVCAR-5 ovarian, 11.5 µM; with OVCAR-4 ovarian, 3.53 µM; with CCRF-CEM leukemia it was 0.677 µM. For the same compound, the TGI turned out to be 2.38 µM in the assay with SW-620 colon, 5.47 µM in the assay with SK-MEL-5 melanoma, 2.72 µM with SK-MEL-2 melanoma and 3.94 µM with UACC-257 melanoma.

`CC1(C)CC23C(=O)N(c4ccccc4)C(=Nc4ccccc4)NC2=CC(C#N)=C(C#N)C3O1` (stereo not given): the TGI in the assay with HCT-15 colon was > 100 µM; with HL-60(TB) leukemia, 89.9 µM; in the assay with M14 melanoma, > 100 µM; in the assay with OVCAR-5 ovarian it was > 100 µM; with OVCAR-4 ovarian, > 100 µM; in the assay on CCRF-CEM leukemia, > 100 µM. Moreover, the TGI with SW-620 colon is > 100 µM; with SK-MEL-5 melanoma, 95.5 µM; in the assay with SK-MEL-2 melanoma it was > 100 µM; in the assay on UACC-257 melanoma, > 100 µM.

Regarding `CS(=O)(=O)CCNCc1ccc(-c2ccc3ncnc(Nc4ccc(OCc5ccccc5)c(C(F)(F)F)c4)c3c2)o1`, the GI50 in the assay on HCT-15 colon is 4.65 µM; with HL-60(TB) leukemia it was 5.65 µM; with M14 melanoma, 5.26 µM; with OVCAR-5 ovarian, 4.87 µM; in the assay with OVCAR-4 ovarian, 10.3 µM; in the assay with CCRF-CEM leukemia it was 7.29 µM. For the same compound, the GI50 is 4.62 µM with SW-620 colon, 3.55 µM in the assay with SK-MEL-5 melanoma, 5.68 µM in the assay on SK-MEL-2 melanoma and 4.74 µM with UACC-257 melanoma. The TGI was 10.2 µM with HCT-15 colon; 13.3 µM in the assay on HL-60(TB) leukemia; 10.4 µM in the assay with M14 melanoma; 12.5 µM with OVCAR-5 ovarian; > 25 µM in the assay with OVCAR-4 ovarian; > 23.1 µM with CCRF-CEM leukemia. Besides, the TGI in the assay on SW-620 colon came out at 8.66 µM; in the assay on SK-MEL-5 melanoma it was 6.87 µM; in the assay with SK-MEL-2 melanoma it was 11.4 µM; with UACC-257 melanoma it was 9.09 µM.

For `CC(C#N)c1cn(S(=O)(=O)c2ccccc2)c2ccccc12` (stereo not given), the TGI was > 100 µM in the assay with HCT-15 colon; 88.1 µM with HL-60(TB) leukemia; > 100 µM in the assay on M14 melanoma; > 100 µM with OVCAR-5 ovarian; > 100 µM with OVCAR-4 ovarian; > 100 µM in the assay on CCRF-CEM leukemia. Besides, the TGI in the assay with SW-620 colon was > 100 µM; with SK-MEL-5 melanoma, 36.9 µM; in the assay on SK-MEL-2 melanoma, > 100 µM; in the assay on UACC-257 melanoma, > 100 µM.

On to `C[C@]12CCC[C@H](OC=O)C1(O)C[C@H](C(=O)O)CC2` (stereo not given in full), for which the TGI in the assay on HCT-15 colon, in the assay with HL-60(TB) leukemia, in the assay with M14 melanoma, in the assay with OVCAR-5 ovarian, with OVCAR-4 ovarian and in the assay with CCRF-CEM leukemia was > 100 µM in each case. Also, the TGI in the assay with SW-620 colon, with SK-MEL-5 melanoma, in the assay on SK-MEL-2 melanoma and with UACC-257 melanoma was > 100 µM throughout.
